Square brackets hold non-standard residues; d marks the D form. Peptide text beside a SMILES is read from it. pGlu = O=C1CC[CH](C(=O)O)N1
Assay: FBMN analysis of short peptides in small intestine contents and serum after oral DHG
Conditions: small intestine contents, 30 min after oral DHG, C57 mice; FBMN feature intensity, peptides smaller than 690 Da

SMILES | Peptide signal (feature intensity) in the small intestine, 30 min
CC(C)C[C@H](NC(=O)CNC(=O)[C@@H](N)CC(C)C)C(=O)O [Leu-Gly-Leu] (H-Leu-Gly-Leu-OH) | 2.40E+06
N[C@@H](Cc1c[nH]c2ccccc12)C(=O)NCC(=O)O [Trp-gly] (H-Trp-Gly-OH) | 0.00E+00
CC[C@H](C)[C@H](NC(=O)[C@@H](N)CC(N)=O)C(=O)O [Asn-Ile] (H-Asn-Ile-OH) | 1.55E+06
CSCCC(NC(=O)C1CCC(=O)N1)C(=O)O (stereo not shown) [PyroGlu-Met] ([pGlu]-Met-OH; configuration not given here) | 4.70E+06
CCCC[C@H](NC(=O)[C@H](C)N)C(=O)O [L-Alanyl-L-norleucine] (HELM PEPTIDE1{A.[Nle]}$$$$V2.0) | 1.73E+05
CC[C@H](C)[C@H](N)C(=O)N[C@H](C(=O)N[C@@H](CCCCN)C(=O)O)[C@@H](C)CC [Ile-Ile-Lys] (H-Ile-Ile-Lys-OH) | 3.33E+05
CC[C@H](C)[C@H](N)C(=O)N[C@@H](Cc1ccc(O)cc1)C(=O)O [Ile-Tyr] (H-Ile-Tyr-OH) | 4.20E+05
NC(=O)CC[C@H](NC(=O)[C@@H](N)Cc1ccccc1)C(=O)O [Phe-Gln] | 0.00E+00
CC[C@H](C)[C@H](NC(=O)[C@@H](N)Cc1cnc[nH]1)C(=O)O [His-Ile] (H-His-Ile-OH) | 1.87E+07
NC(=O)C[C@H](N)C(=O)N[C@@H](Cc1ccccc1)C(=O)O [Asn-Phe] (H-Asn-Phe-OH) | 2.16E+06

Same assay, conditions: small intestine contents, 60 min after oral DHG, C57 mice; FBMN feature intensity, peptides smaller than 690 Da

SMILES | Peptide signal (feature intensity) in the small intestine, 60 min
CC(C)C[C@H](NC(=O)CNC(=O)[C@@H](N)CC(C)C)C(=O)O [Leu-Gly-Leu] (H-Leu-Gly-Leu-OH) | 6.61E+05
N[C@@H](Cc1c[nH]c2ccccc12)C(=O)NCC(=O)O [Trp-gly] (H-Trp-Gly-OH) | 0.00E+00
CC[C@H](C)[C@H](NC(=O)[C@@H](N)CC(N)=O)C(=O)O [Asn-Ile] (H-Asn-Ile-OH) | 1.54E+06
CSCCC(NC(=O)C1CCC(=O)N1)C(=O)O (stereo not shown) [PyroGlu-Met] ([pGlu]-Met-OH; configuration not given here) | 5.95E+06
CCCC[C@H](NC(=O)[C@H](C)N)C(=O)O [L-Alanyl-L-norleucine] (HELM PEPTIDE1{A.[Nle]}$$$$V2.0) | 0.00E+00
CC[C@H](C)[C@H](N)C(=O)N[C@H](C(=O)N[C@@H](CCCCN)C(=O)O)[C@@H](C)CC [Ile-Ile-Lys] (H-Ile-Ile-Lys-OH) | 2.00E+05
CC[C@H](C)[C@H](N)C(=O)N[C@@H](Cc1ccc(O)cc1)C(=O)O [Ile-Tyr] (H-Ile-Tyr-OH) | 8.21E+05
NC(=O)CC[C@H](NC(=O)[C@@H](N)Cc1ccccc1)C(=O)O [Phe-Gln] | 1.71E+05
CC[C@H](C)[C@H](NC(=O)[C@@H](N)Cc1cnc[nH]1)C(=O)O [His-Ile] (H-His-Ile-OH) | 0.00E+00
NC(=O)C[C@H](N)C(=O)N[C@@H](Cc1ccccc1)C(=O)O [Asn-Phe] (H-Asn-Phe-OH) | 2.86E+06

Same assay, conditions: small intestine contents, 120 min after oral DHG, C57 mice; FBMN feature intensity, peptides smaller than 690 Da

SMILES | Peptide signal (feature intensity) in the small intestine, 120 min
CC(C)C[C@H](NC(=O)CNC(=O)[C@@H](N)CC(C)C)C(=O)O [Leu-Gly-Leu] (H-Leu-Gly-Leu-OH) | 0.00E+00
N[C@@H](Cc1c[nH]c2ccccc12)C(=O)NCC(=O)O [Trp-gly] (H-Trp-Gly-OH) | 0.00E+00
CC[C@H](C)[C@H](NC(=O)[C@@H](N)CC(N)=O)C(=O)O [Asn-Ile] (H-Asn-Ile-OH) | 4.19E+06
CSCCC(NC(=O)C1CCC(=O)N1)C(=O)O (stereo not shown) [PyroGlu-Met] ([pGlu]-Met-OH; configuration not given here) | 0.00E+00
CCCC[C@H](NC(=O)[C@H](C)N)C(=O)O [L-Alanyl-L-norleucine] (HELM PEPTIDE1{A.[Nle]}$$$$V2.0) | 2.05E+05
CC[C@H](C)[C@H](N)C(=O)N[C@H](C(=O)N[C@@H](CCCCN)C(=O)O)[C@@H](C)CC [Ile-Ile-Lys] (H-Ile-Ile-Lys-OH) | 0.00E+00
CC[C@H](C)[C@H](N)C(=O)N[C@@H](Cc1ccc(O)cc1)C(=O)O [Ile-Tyr] (H-Ile-Tyr-OH) | 0.00E+00
NC(=O)CC[C@H](NC(=O)[C@@H](N)Cc1ccccc1)C(=O)O [Phe-Gln] | 3.17E+05
CC[C@H](C)[C@H](NC(=O)[C@@H](N)Cc1cnc[nH]1)C(=O)O [His-Ile] (H-His-Ile-OH) | 2.72E+07
NC(=O)C[C@H](N)C(=O)N[C@@H](Cc1ccccc1)C(=O)O [Asn-Phe] (H-Asn-Phe-OH) | 5.41E+06

Same assay, conditions: small intestine contents, 240 min after oral DHG, C57 mice; FBMN feature intensity, peptides smaller than 690 Da

SMILES | Peptide signal (feature intensity) in the small intestine, 240 min
CC(C)C[C@H](NC(=O)CNC(=O)[C@@H](N)CC(C)C)C(=O)O [Leu-Gly-Leu] (H-Leu-Gly-Leu-OH) | 4.40E+06
N[C@@H](Cc1c[nH]c2ccccc12)C(=O)NCC(=O)O [Trp-gly] (H-Trp-Gly-OH) | 6.50E+05
CC[C@H](C)[C@H](NC(=O)[C@@H](N)CC(N)=O)C(=O)O [Asn-Ile] (H-Asn-Ile-OH) | 2.54E+06
CSCCC(NC(=O)C1CCC(=O)N1)C(=O)O (stereo not shown) [PyroGlu-Met] ([pGlu]-Met-OH; configuration not given here) | 0.00E+00
CCCC[C@H](NC(=O)[C@H](C)N)C(=O)O [L-Alanyl-L-norleucine] (HELM PEPTIDE1{A.[Nle]}$$$$V2.0) | 1.49E+05
CC[C@H](C)[C@H](N)C(=O)N[C@H](C(=O)N[C@@H](CCCCN)C(=O)O)[C@@H](C)CC [Ile-Ile-Lys] (H-Ile-Ile-Lys-OH) | 0.00E+00
CC[C@H](C)[C@H](N)C(=O)N[C@@H](Cc1ccc(O)cc1)C(=O)O [Ile-Tyr] (H-Ile-Tyr-OH) | 0.00E+00
NC(=O)CC[C@H](NC(=O)[C@@H](N)Cc1ccccc1)C(=O)O [Phe-Gln] | 2.35E+05
CC[C@H](C)[C@H](NC(=O)[C@@H](N)Cc1cnc[nH]1)C(=O)O [His-Ile] (H-His-Ile-OH) | 2.33E+07
NC(=O)C[C@H](N)C(=O)N[C@@H](Cc1ccccc1)C(=O)O [Asn-Phe] (H-Asn-Phe-OH) | 4.96E+06
